Read-outs that look alike come from different tables or passages of the source.
Columns and labels:
Assay type in all cases: cell-based
M1 muscarinic receptor = biological target: T1, M1 muscarinic receptor (Homo sapiens, UniProt P11229); test: Receptor Selection and Amplification (R-SAT) assay, cloned M1 receptor; design: M1 Eff: scale not given here; settings: for Emax: read-out: m1 % Efficacy
T1 construct: expressed in transfected cells
T1 sequence (P11229 1-460): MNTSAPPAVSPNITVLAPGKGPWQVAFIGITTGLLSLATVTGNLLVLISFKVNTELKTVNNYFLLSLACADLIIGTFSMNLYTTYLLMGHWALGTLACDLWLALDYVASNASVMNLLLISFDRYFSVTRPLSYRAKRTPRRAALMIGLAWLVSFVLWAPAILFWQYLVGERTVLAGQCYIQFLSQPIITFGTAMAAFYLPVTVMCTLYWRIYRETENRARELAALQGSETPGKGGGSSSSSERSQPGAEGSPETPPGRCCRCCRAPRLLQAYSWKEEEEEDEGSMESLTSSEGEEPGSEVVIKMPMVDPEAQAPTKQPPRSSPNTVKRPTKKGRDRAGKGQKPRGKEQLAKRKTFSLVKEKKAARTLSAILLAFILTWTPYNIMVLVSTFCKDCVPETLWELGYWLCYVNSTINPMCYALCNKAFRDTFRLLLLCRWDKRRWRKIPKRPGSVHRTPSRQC
Source text: (§1) The EC50 for an agonist is intended to denote the concentration of a compound needed to achieve 50% of a maximal response seen in an in vitro assay such as R-SAT. For inverse agonists, EC50 is intended to denote the concentration of a compound needed to achieve 50% inhibition of an R-SAT response from basal, no compound, levels.
(§2) A particularly convenient functional assay system is the receptor selection and amplification assay (R-SAT assay) in U.S. Pat. No. 5,707,798, which describes a method of screening for bioactive compounds by utilizing the ability of cells transfected with receptor DNA, e.g., coding for the different muscarinic subtypes, to amplify in the presence of a ligand of the receptor. Cell amplification is detected as increased levels of a marker also expressed by the cells.
(§3) Receptor Selection and Amplification (R-SAT) assays were carried out using the cloned M1-M5 receptors essentially as described in: Brauner-Osborne H, Brann M R. Pharmacology of muscarinic acetylcholine receptor subtypes (m1-m5): high throughput assays in mammalian cells. Eur J Pharmacol Jan. 4, 1996;295(1):93-102, and Spalding T A, Trotter C, Skjaerbaek N, Messier T L, Currier E A, Burstein E S, Li D, Hacksell U, Brann M R. Discovery of an ectopic activation site on the M(1) muscarinic receptor. Mol Pharmacol. 2002 June;61(6):1297-302.

M2 muscarinic receptor = biological target: T2, M2 muscarinic receptor (Homo sapiens, UniProt P08172); test: Receptor Selection and Amplification (R-SAT) assay, cloned M2 receptor; design: M2 Eff: scale not given here; settings: for Emax: read-out: m2 % Efficacy
T2 construct: expressed in transfected cells
T2 sequence (P08172 1-466): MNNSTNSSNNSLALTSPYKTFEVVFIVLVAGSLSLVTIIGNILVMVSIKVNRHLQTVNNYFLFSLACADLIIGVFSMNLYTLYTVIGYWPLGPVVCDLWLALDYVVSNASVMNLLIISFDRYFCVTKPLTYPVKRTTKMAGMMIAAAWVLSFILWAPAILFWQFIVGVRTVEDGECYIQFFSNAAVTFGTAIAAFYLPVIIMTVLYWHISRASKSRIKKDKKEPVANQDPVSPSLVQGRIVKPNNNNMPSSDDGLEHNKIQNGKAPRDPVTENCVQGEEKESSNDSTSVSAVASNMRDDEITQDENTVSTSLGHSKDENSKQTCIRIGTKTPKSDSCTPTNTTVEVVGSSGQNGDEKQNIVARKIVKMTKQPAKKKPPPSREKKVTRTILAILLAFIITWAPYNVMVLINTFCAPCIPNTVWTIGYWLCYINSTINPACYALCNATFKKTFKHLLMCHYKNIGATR
Source text: as §1, §2, §3

M4 muscarinic receptor = biological target: T3, M4 muscarinic receptor (Homo sapiens, UniProt P08173); test: Receptor Selection and Amplification (R-SAT) assay, cloned M4 receptor; settings: for Emax: read-out: m4 % Efficacy
T3 construct: expressed in transfected cells
T3 sequence (P08173 1-479): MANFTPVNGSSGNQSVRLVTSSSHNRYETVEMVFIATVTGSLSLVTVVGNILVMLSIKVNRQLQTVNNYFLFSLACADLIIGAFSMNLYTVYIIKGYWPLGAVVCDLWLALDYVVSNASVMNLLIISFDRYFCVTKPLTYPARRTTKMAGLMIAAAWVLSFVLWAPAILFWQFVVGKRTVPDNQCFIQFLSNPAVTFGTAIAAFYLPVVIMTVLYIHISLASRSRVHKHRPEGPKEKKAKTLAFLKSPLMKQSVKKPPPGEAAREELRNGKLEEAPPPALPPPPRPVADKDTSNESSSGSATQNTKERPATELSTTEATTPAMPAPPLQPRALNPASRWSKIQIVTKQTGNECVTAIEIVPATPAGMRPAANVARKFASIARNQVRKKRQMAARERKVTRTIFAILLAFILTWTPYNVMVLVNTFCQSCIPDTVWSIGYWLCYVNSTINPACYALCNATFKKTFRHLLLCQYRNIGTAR
Source text: as §1, §2, §3

M3 muscarinic receptor = biological target: T4, M3 muscarinic receptor (Homo sapiens, UniProt P20309); test: Receptor Selection and Amplification (R-SAT) assay, cloned M3 receptor; settings: R-SAT, second table (COMPOUND ID series)
T4 construct: expressed in transfected cells
T4 sequence (P20309 whole entry): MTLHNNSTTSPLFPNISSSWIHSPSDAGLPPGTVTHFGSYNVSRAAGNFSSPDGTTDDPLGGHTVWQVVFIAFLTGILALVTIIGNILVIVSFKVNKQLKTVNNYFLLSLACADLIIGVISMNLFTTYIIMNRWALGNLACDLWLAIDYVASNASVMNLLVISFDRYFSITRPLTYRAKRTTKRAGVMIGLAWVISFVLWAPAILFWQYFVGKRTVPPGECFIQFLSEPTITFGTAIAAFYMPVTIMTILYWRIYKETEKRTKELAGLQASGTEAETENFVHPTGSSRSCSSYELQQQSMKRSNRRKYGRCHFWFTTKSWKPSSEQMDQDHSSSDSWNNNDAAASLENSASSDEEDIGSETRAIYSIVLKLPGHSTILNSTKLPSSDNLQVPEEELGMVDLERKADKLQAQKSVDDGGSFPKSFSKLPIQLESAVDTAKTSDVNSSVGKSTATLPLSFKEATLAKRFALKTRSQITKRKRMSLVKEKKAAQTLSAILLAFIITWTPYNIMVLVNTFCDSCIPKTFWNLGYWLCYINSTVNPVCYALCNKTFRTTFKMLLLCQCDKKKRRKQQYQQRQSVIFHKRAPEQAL
Source text: as §1, §2, §3

[1] = R-SAT, second table (COMPOUND ID series)
[2] = R-SAT, second table (COMPOUND ID series), read-out: M1 pEC50 (converted)
[3] = R-SAT, second table (COMPOUND ID series), read-out: M2 pEC50 (converted)
[4] = R-SAT, cloned m1 receptor, read-out: m1 pEC50 (converted)
[5] = R-SAT, cloned m2 receptor, read-out: m2 pEC50 (converted)
[6] = R-SAT, cloned m4 receptor, read-out: m4 pEC50 (converted)
[7] = M1 pEC50, R-SAT, second table (COMPOUND ID series)
[8] = M2 pEC50, R-SAT, second table (COMPOUND ID series)

Row | Compound | Emax (M1 muscarinic receptor; R-SAT, cloned m1 receptor) | EC50 (M1 muscarinic receptor; [4]) | Emax (M4 muscarinic receptor; R-SAT, cloned m4 receptor) | EC50 (M4 muscarinic receptor; [6]) | M1 Eff (M1 muscarinic receptor; [1]) | M2 Eff (M2 muscarinic receptor; [1]) | further results
1 | CCCCCC1CC2CCC(C1)N2C[C@@H](C)CN1C(=O)COc2ccccc21 (stereo partly drawn) [Compound 108LM39-36, (R)-4-[2-Methyl-3-(3-pentyl-8-azabicyclo[3.2.1]oct-8-yl)propyl]-4H-benzo[1,4]oxazin-3-one] | – | – | – | – | – | – | EC50 (M1 muscarinic receptor; m1 pEC50, R-SAT, cloned m1 receptor): 1.58 nM; Emax (M1 muscarinic receptor): 106%; EC50 (M2 muscarinic receptor; m2 pEC50, R-SAT, cloned m2 receptor): 7.94 nM; Emax (M2 muscarinic receptor): 37%; EC50 (M4 muscarinic receptor): 20 nM; Emax (M4 muscarinic receptor): 71%
2 | C[C@H](CN1CCC(OCC2CC2)CC1)CN1C(=O)COc2ccccc21 [Compound 00262908, 4-[(R)-3-(4-Cyclopropylmethoxypiperidin-1-yl)-2-methylpropyl]-4H-benzo[1,4]oxazin-3-one] | – | – | – | – | 126 | 103 | EC50 (M1 muscarinic receptor; [2]): 12.6 nM; EC50 (M2 muscarinic receptor; [3]): 631 nM; M3 Eff (M3 muscarinic receptor): 74; EC50 (M3 muscarinic receptor; read-out: M3 pEC50 (converted)): 2510 nM
3 | CC(CN1CCC(OCC2CCC2)CC1)CN1C(=O)COc2ccccc21 (racemic) [Compound 00262197, 4-[(R,S)-3-(4-Cyclobutylmethoxypiperidin-1-yl)-2-methylpropyl]-4H-benzo[1.4]oxazin-3-one] | – | – | – | – | 122 | 28 | EC50 (M1 muscarinic receptor; [2]): 158 nM; EC50 (M2 muscarinic receptor; [3]): 2510 nM
4 | COCCC1CC2CCC(C1)N2CC(C)CN1C(=O)COc2ccccc21 [Compound 00263025, (R)-4-{3-[3a-(2-Methoxyethyl)-8-azabicyclo[3.2.1]oct-8-yl]-2-methylpropyl}-4H-benzo[1.4]oxazin-3-one] | – | – | – | – | 116 | 123 | EC50 (M1 muscarinic receptor; [7]): 3.16 nM; EC50 (M2 muscarinic receptor; [8]): 158 nM
5 | CCON=C1CC2CCC(C1)N2C[C@@H](C)CN1C(=O)COc2ccccc21 (single isomer, unassigned) [Compound 00261434] | – | – | – | – | 110 | 50 | EC50 (M1 muscarinic receptor; [7]): 631 nM; EC50 (M2 muscarinic receptor; [8]): 2000 nM

Continued, in another order:

Row | Emax (M1 muscarinic receptor; R-SAT, cloned m1 receptor) | EC50 (M1 muscarinic receptor; [4]) | Emax (M4 muscarinic receptor; R-SAT, cloned m4 receptor) | EC50 (M4 muscarinic receptor; [6]) | Compound | M1 Eff (M1 muscarinic receptor; [1]) | M2 Eff (M2 muscarinic receptor; [1]) | further results
6 | 86% | 63.1 nM | 52% | 251 nM | CCCCC1CCN(CCCN2CCOc3ccc(C)cc32)CC1 [Compound 64LHY91-6, 4-[3-(4-Butyl-piperidin-1-yl)-propyl]-6-methyl-3,4-dihydro-2H-benzo[1,4]oxazine] | – | – | Emax (M2 muscarinic receptor; R-SAT, cloned m2 receptor): 31%; EC50 (M2 muscarinic receptor; [5]): 126 nM
7 | 45% | 200 nM | 64% | > 3160 nM | CCCCC1CCN(CCCN2c3ccccc3CCC2C)CC1 (stereo not shown) [Compound 55-LH-28-8, 1-[3-(4-Butyl-piperidin-1-yl)-propyl]-2-methyl-1,2,3,4-tetrahydro-quinoline] | – | – | Emax (M2 muscarinic receptor; R-SAT, cloned m2 receptor): 67%; EC50 (M2 muscarinic receptor; [5]): > 3160 nM
8 | 55% | 200 nM | 37% | > 3160 nM | CCCCC1CCN(CCCN2c3cc(F)ccc3CCC2C)CC1 (stereo not shown) [Compound 77LH02-1917, 1-[3-(4-Butyl-piperidin-1-yl)-propyl]-7-fluoro-2-methyl-1,2,3,4-tetrahydro-quinoline] | – | – | –
